Results as given in patent US8084457B2, “Pharmaceutically active 4,6-disubstituted aminopyrimidine derivatives as modulators of protein kinases” (Lead Discovery Center GmbH, priority 2003, dated 2011).

Key:
CDK9/Cyclin T1 = target: T1, CDK9/Cyclin T1 (Homo sapiens, UniProt P50750); assay: Kinase assay using CDK9/Cyclin T1; format: biochemical; settings: read-out: CDK9 (activity range)
T1 construct: made in house; host or cells: HEK293 cells, recombinant adenovirus
From the text: Cloning of CDK9 and Cyclin T1:
Both cDNA fragments were cloned by PCR into pDONR201 vectors using the gateway recombination system (Invitrogen) according to the manufacturer's recommendations. The fragments were subcloned into a gateway-adapted shuttle vector (pPM7) for production of recombinant adenovirus. All plasmids were verified by restriction digests and sequencing analysis.
Expression and Purification of CDK9/Cyclin T1 Proteins:
Expression and purification was in principle performed as described by Cotten et al. (M. Cotten et al., Nucleic acids research, 2003, 31(28), 128).
Kinase Assay Using CDK9/Cyclin T1:
Kinase assays were performed in principle as described by Cotten et al. (M. Cotten et al., Nucleic acids research, 2003, 31(28), 128).

CDK2/CyclinA = target: T2, CDK2/CyclinA (Homo sapiens, UniProt P24941); assay: Kinase assay determining CDK2/CyclinA activity; format: biochemical; settings: read-out: CDK2 (activity range)
T2 construct: purchased Proqinase
Procedure: Kinase Assays Determining CDK2/CyclinA and CDK5/p35 Activity:
Kinase assays were performed as described by the manufacturers recommendations (Proqinase for CDK2/CyclinA and Upsate for CDK5/p35).

T1 sequence (P50750 whole entry): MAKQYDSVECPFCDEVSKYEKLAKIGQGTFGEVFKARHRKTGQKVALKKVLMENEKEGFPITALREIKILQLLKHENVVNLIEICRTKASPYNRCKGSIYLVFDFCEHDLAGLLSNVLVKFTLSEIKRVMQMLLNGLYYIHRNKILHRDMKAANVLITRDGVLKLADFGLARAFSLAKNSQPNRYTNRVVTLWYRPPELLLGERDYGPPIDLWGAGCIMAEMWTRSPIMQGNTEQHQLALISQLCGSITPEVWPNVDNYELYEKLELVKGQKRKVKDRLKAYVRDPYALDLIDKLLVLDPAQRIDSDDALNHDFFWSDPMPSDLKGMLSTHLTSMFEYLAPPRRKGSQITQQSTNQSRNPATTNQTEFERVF
T1 sequence (O60563 whole entry partner): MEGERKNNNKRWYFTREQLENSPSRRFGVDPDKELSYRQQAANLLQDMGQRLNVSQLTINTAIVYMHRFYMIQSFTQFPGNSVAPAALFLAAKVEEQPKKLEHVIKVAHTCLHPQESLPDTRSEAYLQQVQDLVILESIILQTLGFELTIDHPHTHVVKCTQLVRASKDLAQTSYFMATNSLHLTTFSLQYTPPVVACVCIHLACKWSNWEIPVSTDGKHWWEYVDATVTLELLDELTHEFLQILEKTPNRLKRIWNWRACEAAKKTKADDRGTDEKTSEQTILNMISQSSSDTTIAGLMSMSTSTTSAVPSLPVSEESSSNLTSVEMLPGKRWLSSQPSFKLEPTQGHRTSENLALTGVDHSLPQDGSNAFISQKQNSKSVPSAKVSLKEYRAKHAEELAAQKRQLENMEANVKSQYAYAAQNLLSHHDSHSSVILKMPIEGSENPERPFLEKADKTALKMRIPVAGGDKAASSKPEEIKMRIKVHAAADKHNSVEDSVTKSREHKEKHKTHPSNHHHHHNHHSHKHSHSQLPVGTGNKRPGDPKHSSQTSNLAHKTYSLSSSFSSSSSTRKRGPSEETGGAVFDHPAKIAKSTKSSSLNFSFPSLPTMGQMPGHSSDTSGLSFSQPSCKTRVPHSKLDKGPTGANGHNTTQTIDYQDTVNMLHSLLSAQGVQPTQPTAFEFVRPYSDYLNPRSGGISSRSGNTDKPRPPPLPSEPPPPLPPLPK

Compound | IC50 (CDK9/Cyclin T1) [µM] | IC50 (CDK2/CyclinA) [µM]
CC(C)(C)C(=O)Nc1ccc(Nc2cc(-c3cccnc3)ncn2)cc1 [(73)] | – | 10 to 250
COc1ccccc1-c1cc(Nc2ccc(C(=O)NC3CCCCC3)cc2)ncn1 [(44)] | 0.001 to 1 | 1 to 10
COc1ccc(OC)c(-c2cc(Nc3ccc(NC(=O)c4ccc(N)cc4)cc3)ncn2)c1 [(57)] | 10 to 250 | 10 to 250
Cc1ccc(Nc2cc(-c3cncnc3)ncn2)cc1NS(C)(=O)=O [(110)] | 1 to 10 | 1 to 10
O=C(Nc1ccc(Nc2cc(-c3ccccc3Cl)ncn2)cc1)[C@@H]1CCCCN1 [(192)] | 0.001 to 1 | 10 to 250
COc1ccc(-c2cc(Nc3cccc(S(N)(=O)=O)c3)ncn2)cc1 [Compound 215] | 0.001 to 1 | 0.001 to 1
COc1ccccc1-c1cc(Nc2ccc(NC(=O)C(c3ccccc3)N(C)C)cc2)ncn1 (stereo not shown) [(101)] | 0.001 to 1 | 1 to 10
Cc1ccc(S(=O)(=O)Nc2ccc(Nc3cc(-c4cccc(/C=C/C(=O)O)c4)ncn3)cc2)cc1 [(40)] | 10 to 250 | 10 to 250
CN1CCN(c2cc(Nc3ccc(NC(=O)C(C)(C)C)cc3)ncn2)CC1 [(78)] | – | 10 to 250
COc1ccccc1-c1cc(Nc2ccc(NS(=O)(=O)c3ccccc3)cc2)ncn1 [(155)] | 0.001 to 1 | 0.001 to 1
COc1ccccc1-c1cc(Nc2ccc(NC(=O)c3cc4ccccc4oc3=O)cc2)ncn1 [(129)] | 10 to 250 | –
Nc1ccc(C(=O)Nc2ccc(Nc3cc(-c4cccc(N)c4)ncn3)cc2)cc1 [(21)] | 1 to 10 | 1 to 10
COc1ccc(-c2cc(Nc3ccc(NC(=O)[C@@H]4CCCCN4)cc3)ncn2)cc1 [(167)] | 1 to 10 | –
COc1ncc(-c2cc(Nc3ccc(C(=O)N[C@@H]4CCCC[C@H]4N)cc3)ncn2)cn1 (racemic) [(213)] | 10 to 250 | –
COc1ccccc1-c1ncnc(Nc2ccc(NC(=O)c3ccc(N)cc3)cc2)c1C [(149)] | 10 to 250 | –
COc1ccc(-c2cc(Nc3ccc(NC(=O)[C@@H]4CCCCN4)cc3)ncn2)cn1 [(172)] | 1 to 10 | –
N[C@@H]1CCCC[C@H]1NC(=O)c1ccc(Nc2cc(-c3cccc(O)c3)ncn2)cc1 (racemic) [(194)] | 1 to 10 | –
COC(=O)c1cccc(-c2cc(Nc3ccc(C(=O)N[C@@H]4CCCC[C@H]4N)cc3)ncn2)c1 (racemic) [(201)] | 1 to 10 | –
CC(C)(C)C(=O)Nc1ccc(Nc2cc(-c3cccc(C(=O)O)c3)ncn2)cc1 [(75)] | 10 to 250 | –
COc1ccccc1-c1cc(Nc2ccc(N)cc2)nc(C)n1 [(204)] | 10 to 250 | –
COCc1ccccc1-c1cc(Nc2ccc(C(=O)NC3CCCCC3N)cc2)ncn1 (stereo not shown) [(210)] | 1 to 10 | –
Cc1ccc(Nc2cc(-c3ccccc3CO)ncn2)cc1NS(C)(=O)=O [(166)] | 1 to 10 | –
COc1ccccc1-c1cc(Nc2ccc(NC(=O)c3n[nH]c4ccccc34)cc2)ncn1 [(141)] | 1 to 10 | –
O=C(Nc1ccc(Nc2cc(-c3ccc(OCc4ccccc4)cc3)ncn2)cc1)[C@@H]1CCCCN1 [(173)] | 10 to 250 | –
Cc1ccc(Nc2cc(-c3ccc(CO)cc3)ncn2)cc1NS(C)(=O)=O [(175)] | 1 to 10 | –

Next, values leading:

IC50 (CDK9/Cyclin T1) [µM] | IC50 (CDK2/CyclinA) [µM] | Compound
0.001 to 1 | 0.001 to 1 | COc1ccccc1-c1cc(Nc2ccc(C)c(NS(C)(=O)=O)c2)ncn1 [(162)]
1 to 10 | 1 to 10 | Nc1cccc(-c2cc(NCCc3ccncc3)ncn2)c1 [(13)]
1 to 10 | 1 to 10 | COc1ccccc1-c1cc(Nc2ccc(N)cc2C)ncn1 [(123)]
1 to 10 | – | Nc1cccc(-c2cc(Nc3ccc(C(=O)NC4CCCCC4N)cc3)ncn2)c1 (stereo not shown) [(206)]
1 to 10 | 10 to 250 | Nc1ccc(C(=O)Nc2ccc(Nc3cc(NCCO)ncn3)cc2)cc1 [(60)]
0.001 to 1 | 1 to 10 | COc1ncccc1-c1cc(Nc2ccc(C)c(NS(C)(=O)=O)c2)ncn1 [(176)]
– | 10 to 250 | COc1ccccc1-c1cc(Nc2ccc(NC(=O)Nc3ccc4c(c3)OCO4)cc2)ncn1 [(111)]
1 to 10 | 1 to 10 | COc1ccccc1-c1cc(N(C)c2ccc(N)cc2)ncn1 [(26)]
0.001 to 1 | 0.001 to 1 | COc1ccccc1-c1cc(Nc2cccc(S(C)(=O)=O)c2)ncn1 [(185)]
1 to 10 | – | COCc1cccc(-c2cc(Nc3ccc(NC(=O)[C@@H]4CCCCN4)cc3)ncn2)c1 [(203)]
1 to 10 | – | O=C(Nc1ccc(Nc2cc(-c3ccccc3CO)ncn2)cc1)[C@@H]1CCCCN1 [(170)]
0.001 to 1 | 10 to 250 | COc1ccccc1-c1cc(Nc2ccc(NC(=O)C3CC4CCC3C4)cc2)ncn1 (stereo not shown) [(36)]
0.001 to 1 | 1 to 10 | COc1ccccc1-c1cc(Nc2ccc(C(=O)N[C@@H]3CCCC[C@H]3O)cc2)ncn1 (racemic) [(135)]
1 to 10 | 0.001 to 1 | COc1ccc(-c2cc(Nc3ccc(C)c(NS(C)(=O)=O)c3)ncn2)cc1 [(3)]
0.001 to 1 | 1 to 10 | COc1ccccc1-c1cc(Nc2ccc(NC(=O)c3cn(C)cn3)cc2)ncn1 [(70)]
10 to 250 | 10 to 250 | COc1ccccc1-c1cc(Nc2ccc(-c3nc4ccccc4o3)cc2)ncn1 [(62)]
0.001 to 1 | 10 to 250 | COc1ccccc1-c1cc(Nc2ccc(NC(=O)C3(NC(=O)OC(C)(C)C)CCCC3)cc2)ncn1 [(47)]
1 to 10 | – | N#Cc1cccc(-c2cc(Nc3ccc(C(=O)NC4CCCCC4N)cc3)ncn2)c1 (stereo not shown) [(209)]

IC50 (CDK9/Cyclin T1) [µM] | IC50 (CDK2/CyclinA) [µM] | Compound
1 to 10 | – | O=C(NC1CCCC1)c1ccc(-c2cc(Nc3ccc(NC(=O)[C@@H]4CCCCN4)cc3)ncn2)cc1 [(180)]
– | 10 to 250 | CC(C)(C)C(=O)Nc1ccc(Nc2cc(Cl)ncn2)cc1 [(72)]
1 to 10 | – | CN(C)c1cccc(-c2cc(Nc3ccc(NC(=O)[C@@H]4CCCCN4)cc3)ncn2)c1 [(169)]
1 to 10 | – | CC(=O)Nc1cccc(-c2cc(Nc3ccc(C(=O)NC4CCCCC4N)cc3)ncn2)c1 (stereo not shown) [(207)]
1 to 10 | – | CN(C)Cc1cccc(-c2cc(Nc3ccc(NC(=O)[C@@H]4CCCCN4)cc3)ncn2)c1 [(211)]
1 to 10 | – | CC(=O)c1ccc(-c2cc(Nc3ccc(NC(=O)[C@@H]4CCCCN4)cc3)ncn2)s1 [(191)]
1 to 10 | – | COCc1ccccc1-c1cc(Nc2ccc(C)c(NS(C)(=O)=O)c2)ncn1 [(197)]
1 to 10 | – | O=C(Nc1ccc(Nc2cc(-c3cccc(CO)c3)ncn2)cc1)[C@@H]1CCCCN1 [(193)]
0.001 to 1 | – | CS(=O)(=O)Nc1cccc(-c2cc(Nc3ccc(NC(=O)[C@@H]4CCCCN4)cc3)ncn2)c1 [(178)]
10 to 250 | – | NC1CCCCC1NC(=O)c1ccc(Nc2cc(-c3ccc(OCc4ccccc4)cc3)ncn2)cc1 (stereo not shown) [(208)]
10 to 250 | – | CC(C)(C)C(=O)Nc1ccc(Nc2cc(-c3ccccc3-c3ccccc3)ncn2)cc1 [(132)]
10 to 250 | – | NC1CCCCC1NC(=O)c1ccc(Nc2cc(-c3cnc4ccccc4c3)ncn2)cc1 (stereo not shown) [(212)]
10 to 250 | – | CCCS(=O)(=O)Nc1ccc(Nc2ncnc(-c3ccccc3OC)c2C)cc1 [(160)]
10 to 250 | – | CC(=O)c1cccc(-c2cc(Nc3ccc(NC(=O)[C@@H]4CCCCN4)cc3)ncn2)c1 [(179)]
1 to 10 | – | CC(=O)Nc1ccc(-c2cc(Nc3ccc(NC(=O)[C@@H]4CCCCN4)cc3)ncn2)cc1 [(177)]
10 to 250 | – | COc1ccc(-c2cc(Nc3ccc(N)cc3)nc(C)n2)cc1 [(205)]
10 to 250 | – | COc1ccc(-c2ncnc(Nc3ccc(NC(=O)c4ccc(N)cc4)cc3)c2C)cc1 [(200)]
